Results published in patent publication US9988430B2, “Stable GLP-1 based GLP-1/glucagon receptor co-agonists” (Novo Nordisk A/S, priority 2014, dated 2018).
*1 amine or outer side, *2 acyl side, *3 side chain or, on linkers, in order; H or OH if unused. Where a SMILES comes first, the peptide text is derived from it. Bridges are numbered along the chain shown (N, C = ends). Roman numbers before positions name the chains, in order. Side-chain parts run from the residue outwards. [ ]: non-standard residue; d: D form. The star is where a group is joined. C18 diacid = O=C(O)CCCCCCCCCCCCCCCCC(=O)*; γGlu = O=C(O)[C@H](CCC(=O)[*:2])N[*:1]; Desaminohistidyl = O=C(CCc1c[nH]cn1)*; Ac4c = NC1(C(=O)O)CCC1; AEEA = NCCOCCOCC(=O)O

Tests used:
[1] = biological target: T1, human GLP-1 receptor (Homo sapiens, UniProt P43220); test: Assay (I)(a): GLP-1 receptor potency, CRE luciferase reporter gene assay in BHK cells; format: cell-based; conditions: BHK cells expressing human GLP-1 receptor, read-out: EC50 GLP-1R
T1 construct: expressed in transfected cells; host or cells: membranes of BHK cells, parent line BHKTS13, clone FCW467-12A
Method: Assay (I): GLP-1 and Glucagon Receptor Potency The purpose of this example was to test the activity or potency, of the GLP-1 derivatives of the invention, in vitro. The in vitro potency is the measure of human GLP-1 receptor (GLP-1R) or glucagon receptor (glucagonR) activation, respectively, in a whole cell assay. In vitro potency was determined by measuring the cellular response of human GLP-1 or glucagon receptor activation, respectively, in a reporter gene assay. The assay was performed in a BHK cell line that stably expresses either the human GLP-1 receptor or the human glucagon receptor and comprises the DNA for the cAMP response element (CRE) coupled to a promoter and the gene for firefly luciferase (CRE luciferase). […] When assay incubation was completed, the luciferase substrate (luciferin) was added and the enzyme converted luciferin to oxyluciferin and produces bioluminescence. The luminescence was measured as the readout for the assay. (a) GLP-1 Receptor Activation The cells used in this assay (clone FCW467-12A/KZ10-1) were BHK cells with BHKTS13 as a parent cell line. The cells were derived from a clone (FCW467-12A) that expresses the human GLP-1 receptor and were established by further transfection with CRE luciferase to obtain the current clone. The cells were cultured at 5% CO2 in DMEM medium with 10% FBS, 1×GlutaMAX, 1 mg/ml G418, 240 nM MTX (methotrexate) and 1% pen/strep (penicillin/streptomycin). They were aliquoted and stored in liquid nitrogen. Before each assay, an aliquot was taken up and washed three times in PBS before being suspended at the desired concentration in assay medium. For 96-well plates the suspension was made to give a final concentration of 5×10EE3 cells/well. The following chemicals were used in the assay: Pluronic F-68 (10%) (Gibco 2404), Ovalbumin (Sigma A5503), DMEM w/o phenol red (Gibco 11880-028), 1 M Hepes (Gibco 15630), Glutamax 100× (Gibco 35050) and steadylite plus (PerkinElmer 6016757). Assay Medium consisted of DMEM w/o phenol red, 10 mM Hepes, 1×GlutaMAX, 2% Ovalbumin and 0.2% Pluronic F-68. Cell stocks were thawed in a 37° C. water bath. Cells were washed three times in PBS. The cells were counted and adjusted to 5×10EE3 cells/50 μl (1×10EE5 cells/ml) in Assay Medium. A 50 μl aliquot of cells was transferred to each well in the assay plate. Stocks of the test compounds and reference compounds were diluted to a concentration of […] in Assay Medium. Compounds were diluted 10-fold to give the following concentrations: 2×10EE-6 M, 2×10EE-7 M, 2×10EE-8 M; 2×10EE-9 M, 2×10EE-10 M, 2×10EE-11 M, 2×10EE-12 M and 2×10EE-13 M. For each compound a blank assay medium control was also included. A 50 μl aliquot of compound or blank was transferred from the dilution plate to the assay plate. Compounds were tested at the following final concentrations: 1×10EE-6 M, 1×10EE-7 M, 1×10EE-8 M; 1×10EE-9 M, 1×10EE-10 M, 1×10EE-11 M and 1×10EE-12 M and 1×10EE-13 M. The assay plate was incubated for 3 h in a 5% CO2 incubator at 37° C. The assay plate was removed from the incubator and allowed to stand at room temperature for 15 min. A 100 μl aliquot of steadylite plus reagent was added to each well of the assay plate (reagent is light sensitive). Each assay plate was covered with aluminum foil to protect it from light and shaken for 30 min at room temperature. Each assay plate was read in a Perkin Elmer TopCount NXT instrument. The data from the TopCount instrument was transferred to GraphPad Prism software. The software performed a non-linear regression (log(agonist) vs response-Variable slope (four parameter)). EC50 values were calculated by the software and reported in pM.

[2] = biological target: T1, human GLP-1 receptor; test: Assay (II)(a): GLP-1 receptor binding, [125I]GLP-1 displacement, SPA on BHK membranes; conditions: displacement of [125I]GLP-1, membranes with human GLP-1 receptor; read-out: IC50 GLP-1R
In short: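 Membranes from BHK cells expressing human GLP-1 receptor with WGA SPA beads, [125I]GLP-1(7-36)NH2 (480 pM added solution) and compound in HEPES pH 7.4 buffer with EGTA, MgCl2, Tween 20. Incubated 2 h at 30° C; SPA counts fitted by non-linear regression to IC50 in nM.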

T1 sequence (P43220 24-463): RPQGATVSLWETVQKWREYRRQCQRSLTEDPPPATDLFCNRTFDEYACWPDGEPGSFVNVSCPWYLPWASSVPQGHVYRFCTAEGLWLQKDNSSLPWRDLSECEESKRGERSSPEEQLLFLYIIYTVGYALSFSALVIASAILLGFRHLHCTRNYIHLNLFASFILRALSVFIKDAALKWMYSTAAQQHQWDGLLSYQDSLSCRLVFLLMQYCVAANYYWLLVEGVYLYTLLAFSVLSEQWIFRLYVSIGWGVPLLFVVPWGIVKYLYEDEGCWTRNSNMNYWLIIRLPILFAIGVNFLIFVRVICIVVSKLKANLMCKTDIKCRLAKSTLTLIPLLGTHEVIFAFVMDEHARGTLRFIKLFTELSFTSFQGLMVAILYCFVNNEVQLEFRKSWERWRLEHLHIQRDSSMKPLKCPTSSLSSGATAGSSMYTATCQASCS

| SMILES | EC50 [1] | IC50 [2] |
| --- | --- | --- |
| CC[C@H](C)[C@H](NC(=O)[C@H](Cc1ccccc1)NC(=O)[C@H](CCC(=O)O)NC(=O)[C@H](CCCNC(=N)N)NC(=O)[C@H](C)NC(=O)[C@H](C)NC(=O)[C@H](CCC(N)=O)NC(=O)[C@H](CCC(=O)O)NC(=O)[C@H](CCC(=O)O)NC(=O)[C@H](CC(C)C)NC(=O)[C@H](Cc1ccc(O)cc1)NC(=O)[C@H](CCCNC(=N)N)NC(=O)[C@H](CO)NC(=O)[C@H](Cc1ccc(O)cc1)NC(=O)[C@H](CC(=O)O)NC(=O)[C@H](CO)NC(=O)[C@@H](NC(=O)[C@H](Cc1ccccc1)NC(=O)[C@@H](NC(=O)CNC(=O)[C@H](Cc1c[nH]cn1)NC(=O)C1(NC(=O)CCc2c[nH]cn2)CCC1)[C@@H](C)O)[C@@H](C)O)C(=O)N[C@@H](C)C(=O)N[C@@H](Cc1c[nH]c2ccccc12)C(=O)N[C@@H](CC(C)C)C(=O)N[C@@H](CC(C)C)C(=O)N[C@@H](CCCNC(=N)N)C(=O)N[C@@H](CCCCNC(=O)CC[C@H](NC(=O)COCCOCCNC(=O)CC[C@H](NC(=O)COCCOCCNC(=O)CC[C@H](NC(=O)COCCOCCNC(=O)CC[C@H](NC(=O)CC[C@H](NC(=O)CCCCCCCCCCCCCCCCC(=O)O)C(=O)O)C(=O)O)C(=O)O)C(=O)O)C(=O)O)C(N)=O [Example 22, N^ε35-[(4S)-4-carboxy-4-[[2-[2-[2-[[(4S)-4-carboxy-4-[[2-[2-[2-[[(4S)-4-carboxy-4-[[2-[2-[2-[[(4S)-4-carboxy-4-[[(4S)-4-carboxy-4-(17-carboxyheptadecanoylamino)butanoyl]amino]butanoyl]amino]ethoxy]ethoxy]acetyl]amino]butanoyl]amino]ethoxy]ethoxy]acetyl]amino]butanoyl]amino]ethoxy]ethoxy]acetyl]amino]butanoyl]-[Imp7,Acb8,His9,Tyr16,Arg18,Glu22,Arg26,Leu33,Arg34,Lys35]-GLP-1-(7-35)-peptide amide] (Desaminohistidyl-[Ac4c]HGTFTSDYSRYLEEQAAREFIAWLLRK([γGlu-AEEA-γGlu-AEEA-γGlu-AEEA-γGlu-γGlu-C18 diacid])-NH2) | 0.003 nM | 0.9 nM |
| CC[C@H](C)[C@H](NC(=O)[C@H](Cc1ccccc1)NC(=O)[C@H](CCC(=O)O)NC(=O)[C@H](CCCNC(=N)N)NC(=O)[C@H](C)NC(=O)[C@H](C)NC(=O)[C@H](CCC(N)=O)NC(=O)[C@H](CCC(=O)O)NC(=O)[C@H](CCC(=O)O)NC(=O)[C@H](CC(C)C)NC(=O)[C@H](Cc1ccc(O)cc1)NC(=O)[C@H](CCCNC(=N)N)NC(=O)[C@H](CO)NC(=O)[C@@H](NC(=O)[C@H](CC(=O)O)NC(=O)[C@H](CO)NC(=O)[C@@H](NC(=O)[C@H](Cc1ccccc1)NC(=O)[C@@H](NC(=O)CNC(=O)[C@H](Cc1c[nH]cn1)NC(=O)CNC(=O)CCc1c[nH]cn1)[C@@H](C)O)[C@@H](C)O)C(C)C)C(=O)N[C@@H](C)C(=O)N[C@@H](Cc1c[nH]c2ccccc12)C(=O)N[C@@H](CC(C)C)C(=O)N[C@@H](CC(C)C)C(=O)N[C@@H](CCCCNC(=O)CNC(=O)[C@H](CO)NC(=O)[C@H](CCC(=O)O)NC(=O)CNC(=O)[C@H](CO)NC(=O)CC[C@H](NC(=O)CC[C@H](NC(=O)CCCCCCCCCCCCCCCCC(=O)O)C(=O)O)C(=O)O)C(=O)N[C@H](C(N)=O)[C@@H](C)O [Example 37, N^ε34-[2-[[(2S)-2-[[(2S)-4-carboxy-2-[[2-[[(2S)-2-[[(4S)-4-carboxy-4-[[(4S)-4-carboxy-4-(17-carboxyheptadecanoylamino)butanoyl]amino]butanoyl]amino]-3-hydroxypropanoyl]amino]acetyl]amino]butanoyl]amino]-3-hydroxypropanoyl]amino]acetyl]-[Imp7,Gly8,His9,Arg18,Glu22,Arg26,Leu33,Thr35]-GLP-1-(7-35)-peptide amide] (I: Desaminohistidyl-GHGTFTSDVSRYLEEQAAREFIAWLLKT-NH2 / II: {C18 diacid-γGlu-γGlu}-SGESG; amide I:27-II:C) | 0.008 nM | 3.2 nM |
